# Experimental data published in US20100168102A9, “Amide Derivatives as Kinase Inhibitors” (Devgen NV, priority 2005, published 2010).
# Biological target: T1, PKC epsilon (Homo sapiens, UniProt Q02156)
# T1 construct: purchased Invitrogen P2282
# T1 sequence (Q02156 1-737): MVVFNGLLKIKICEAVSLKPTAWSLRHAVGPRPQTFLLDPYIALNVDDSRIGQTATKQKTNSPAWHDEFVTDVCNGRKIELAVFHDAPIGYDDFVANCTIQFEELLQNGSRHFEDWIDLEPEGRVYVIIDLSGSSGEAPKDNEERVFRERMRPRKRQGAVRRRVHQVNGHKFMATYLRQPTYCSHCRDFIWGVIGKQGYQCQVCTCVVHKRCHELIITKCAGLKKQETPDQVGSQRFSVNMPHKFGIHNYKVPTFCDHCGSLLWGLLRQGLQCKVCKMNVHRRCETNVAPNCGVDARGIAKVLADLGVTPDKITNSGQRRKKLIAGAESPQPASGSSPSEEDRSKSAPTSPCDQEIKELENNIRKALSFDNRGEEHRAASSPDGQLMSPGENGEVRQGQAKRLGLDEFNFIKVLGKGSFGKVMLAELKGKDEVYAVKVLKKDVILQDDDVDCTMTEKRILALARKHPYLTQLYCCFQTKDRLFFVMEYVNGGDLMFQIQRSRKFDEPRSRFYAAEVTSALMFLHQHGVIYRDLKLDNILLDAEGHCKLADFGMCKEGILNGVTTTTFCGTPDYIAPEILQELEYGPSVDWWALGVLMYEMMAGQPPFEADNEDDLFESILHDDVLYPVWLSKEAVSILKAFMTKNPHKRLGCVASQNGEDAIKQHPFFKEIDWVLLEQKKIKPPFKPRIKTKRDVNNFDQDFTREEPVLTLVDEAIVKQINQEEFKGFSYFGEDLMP
# Test: Biochemical assay for PKC epsilon (fluorescence polarization, Protein Kinase C Assay Kit, Red)
# Conditions: Table 2, compounds of Formula XIII; read-out: IC50 μM PKCε
# Procedure: The compounds were tested for inhibition of PKC epsilon.
# The inhibition assays were performed with a fluorescence polarization (FP) assay using the commercially available Protein Kinase C Assay Kit, Red, from Invitrogen (Product ID. No. P2941), essentially in accordance with the protocol supplied by the manufacturer. […] The isozyme PKC epsilon was also obtained from Invitrogen (Product ID No. P2282).
# Staurosporine was used as a positive control (2 μM).
# To perform the assay, 2 μl of a solution of the compound to be tested in DMSO (at each concentration) was added to 6 μl of a solution of the enzyme in 10 mM HEPES, 5 mM dithiotreitol, 0.1% Triton X-100, pH 7.4. The final concentration of the enzymes was 10 ng/ml.
# After incubating for 30 minutes at room temperature, 4 μl of a mixture of ATP and the protein substrate in 60 mM HEPES (pH7.4), 15 mM MgCl2, 0.3 mM CaCl2, 0.06% NP40 was added.
# After incubating for 80 minutes at room temperature, 3 μl of a mix solution of 500 mM EDTA (stop solution) and the Rhodamine-based PKC Red Tracer (from the Protein Kinase C Assay Kit) in BGG/phosphate buffer (pH7.4) with 0.02% NaN3 and 0.1% Triton X-100 was added and 5 μl of a the Anti-Phosphoserine antibody (also from the Protein Kinase C Assay Kit) in BGG/phosphate buffer (pH7.4) with 0.02% NaN3.
# The results were fitted to a curve using the XL-Fit algorithm and […] were calculated for each fitted curve, again using the XL-Fit algorithm.
row,IC50 [µM],Structure (SMILES)
1,0.05 to 0.5,"NC(CNC(=O)C1CCc2ccccc21)c1ccc(C(=O)Nc2ccncc2)cc1 (stereo not shown) [Compound 351, Indan-1-carboxylic acid {2-amino-2-[4-(pyridin-4-ylcarbamoyl)-phenyl]-ethyl}-amide]"
2,< 0.05,"NC(CNC(=O)C1CCc2cc(Cl)ccc21)c1ccc(C(=O)Nc2ccncc2)cc1 (stereo not shown) [Compound 352, 5-Chloro-indan-1-carboxylic acid {2-amino-2-[4-(pyridin-4-ylcarbamoyl)-phenyl]-ethyl}-amide]"
3,0.05 to 0.5,"NC(CNC(=O)C1CCc2ccc(F)cc21)c1ccc(C(=O)Nc2ccncc2)cc1 (stereo not shown) [Compound 354, 6-Fluoro-indan-1-carboxylic acid {2-amino-2-[4-(pyridin-4-ylcarbamoyl)-phenyl]-ethyl}-amide]"
4,< 0.05,"CC(C)(C(=O)NCC(N)c1ccc(C(=O)Nc2ccncc2)cc1)c1ccc(F)c(F)c1 (stereo not shown) [Compound 376, 4-{1-Amino-2-[2-(3,4-difluoro-phenyl)-2-methyl-propionylamino]-ethyl}-N-pyridin-4-yl-benzamide]"

# Same assay, conditions: compounds of Formula XIV, Table 3; read-out: IC50 μM PKCε
row,IC50 [µM],Structure (SMILES)
1,0.05 to 0.5,"NC(CC(=O)NC1CCOc2ccccc21)c1ccc(C(=O)Nc2ccncc2)cc1 (stereo not shown) [Compound 359, 4-[1-Amino-2-(chroman-4-ylcarbamoyl)-ethyl]-N-pyridin-4-yl-benzamide]"
2,0.05 to 0.5,"NC(CC(=O)NC1CCSc2ccccc21)c1ccc(C(=O)Nc2ccncc2)cc1 (stereo not shown) [Compound 360, 4-[1-Amino-2-(thiochroman-4-ylcarbamoyl)-ethyl]-N-pyridin-4-yl-benzamide]"
3,0.05 to 0.5,"NC(CC(=O)NC1COc2ccccc21)c1ccc(C(=O)Nc2ccncc2)cc1 (stereo not shown) [Compound 366, 4-[1-Amino-2-(2,3-dihydro-benzofuran-3-ylcarbamoyl)-ethyl]-N-pyridin-4-yl-benzamide]"
4,0.05 to 0.5,"NC(CC(=O)NC1CCCc2sccc21)c1ccc(C(=O)Nc2ccncc2)cc1 (stereo not shown) [Compound 367, 4-[1-Amino-2-(4,5,6,7-tetrahydro-benzo[b]thiophen-4-ylcarbamoyl)-ethyl]-N-pyridin-4-yl-benzamide]"
5,0.5 to 5,"NC(CC(=O)NC(c1ccc(Cl)cc1)C1CC1)c1ccc(C(=O)Nc2ccncc2)cc1 (stereo not shown) [Compound 368, 4-(1-Amino-2-{[(4-chloro-phenyl)-cyclopropyl-methyl]-carbamoyl}-ethyl)-N-pyridin-4-yl-benzamide]"
6,0.05 to 0.5,"NC(CC(=O)NC(c1ccc(F)cc1)C1CCC1)c1ccc(C(=O)Nc2ccncc2)cc1 (stereo not shown) [Compound 369, 4-(1-Amino-2-{[cyclobutyl-(4-fluoro-phenyl)-methyl]-carbamoyl}-ethyl)-N-pyridin-4-yl-benzamide]"
